Legend:
[1] = Free radical scavenging activity by DPPH method; type: biochemical; details: 30 minutes, room temperature
Method: Anti-oxidative effect of Osteomeles […] extract, fractions thereof obtained from each of hexane layer, ethyl acetate layer, butanol layer and water layer of the extract was investigated in vitro. Free radical scavenging activity of each sample was measured by DPPH method (Brand-Williams W, et al., Technology, 1995, 28, 25-30). Samples were dissolved in ethanol, and diluted at different concentrations. Each of the diluted sample was distributed in 96 well plate (20 μl/well). […] DPPH solution dissolved in ethanol was added to each well by 180 μl to make the final volume of the reaction solution 200 μl, followed by reaction at room temperature for 30 minutes. Then, OD517 was measured with ELISA reader (Bio-TEK, Synergy HT, USA) to investigate absorbance changes by reduction of DPPH. Free radical scavenging activity was presented as RC50, which is the amount of sample (μg/ml) needed for the reduction of 50% DPPH. For the positive control, butylated hydroxytoluene (BHT) was used. Anti-oxidative effect of Osteomeles […] extract was measured in vitro by the same manner as described above and the results are shown in Table 7.

[2] = tested on: type II diabetes animal model, Spontaneous Diabetic Torii (SDT) rat; assay: Type II diabetes animal model, SDT rat; type: in vivo; details: oral once a day 16 weeks; extract 100 and 350 mg/kg as printed; metformin 350 mg/kg; vs diabetes group
[3] = tested on: type II diabetes animal model, Spontaneous Diabetic Torii (SDT) rat; assay: Type II diabetes animal model, SDT rat; type: in vivo
Source text: To investigate the preventive and therapeutic effect of Osteomeles schwerinae on diabetic complications in type II diabetes animal model, the extract was orally administered to Spontaneous Diabetic Torii (SDT) rats for 16 weeks, followed by analysis of the effect. Spontaneous Diabetic Torii (SDT) rats, the type II diabetes animal model, were used as test animals. Particularly, male SDT rats at 10 weeks (CLEA Japan Inc., Tokyo, Japan) were adapted for 1 week, and then raised for 15 weeks until high blood glucose was induced up to the level of 300 mg/dl. Feeds and water were provided freely. 15 weeks later, the rats were divided into 5 groups, 8 rats per each group. As test drugs, Osteomeles schwerinae extract (Os-100, OS-250) and metformin (MET, control drug) were orally administered once a day. The experimental groups were as follows: the normal group (NOR), the diabetes group (DM), the diabetes group treated with 350 mg/kg of metformin (MET), the diabetes group treated with 100 mg/kg of Osteomeles schwerinae extract (OS-100), and the diabetes group treated with 250 mg/kg of Osteomeles schwerinae extract (OS-250). Each group was orally administered with the test drug once a day for 16 weeks. Urine was taken for 24 hours before autopsy. The organs extracted from the autopsy were stored at −80° C.
The test animals were anesthetized by peritoneally injecting pentobarbital sodium (25 mg/kg body weight). Heart was extracted by opening abdominal cavity and thoracic cavity. 50 mg/ml of fluorescein-dextran (2×10^6 molecular weight) dissolved in 1 ml/ml sterilized PBS was injected in the left ventricle. 10 minutes later, eye balls were extracted. Retina was separated from eyecup of the left eye ball. The isolated retina was placed on the slide, followed by mounting with aqueous mounting medium. The slide was completely dried and observed under fluorescent microscope. Fluorescent material was injected in retinal blood vessel, followed by observation. […] To investigate blood-retinal barrier damage, outflow of the fluorescent material was observed. […] However, the fluorescent material was leaked out of blood vessels, indicating blood-retinal barrier damage, in multiple animals of the diabetes group (arrow), and non-perfusion area (arrow) caused by the blood vessel being narrow was also observed in some of those animals in the diabetes group.
Lens was separated and lens opacity was examined to investigate the preventive effect of the extract on lens opacity. Eye balls were extracted during autopsy, which were placed in PBS (phosphate buffered saline, pH 7.4). Lens was carefully separated from the eyeball by posterior approach. Then, iris and zonule were eliminated. The lens was photographed under optical microscope equipped with CCD camera (BX51, Olympus, Japan). Lens opacity was measured with the photographed lens images by using Scion image analyzer (Scion Corporation, USA). The results of investigation of lens opacity with the lens isolated from the eye ball extracted during autopsy are shown in FIG. 39 and in FIG. 40. […] Incidence rate of cataract and lens opacity were quantitatively analyzed.
Lens opacity is caused by the degeneration of lens fiber composing lens. Thus, to investigate the effect of Osteomeles schwerinae extract on lens fiber degeneration, the effect of Osteomeles schwerinae extract on lens fiber degeneration in SDT type II diabetes rat was analyzed. To observe the degeneration of lens fiber induced by cataract, lens was fixed in 10% neutralized formalin (Microme, USA) for 24 hours, followed by the conventional tissue treatment. After paraffin embedding, the embedded block was cut into 2 μm thick sections, followed by hydration. The sections were stained with rhodamine-labeled wheat-germ agglutinin (WGA, Vector Laboratory, USA), and observed under fluorescent microscope (BX51, Olympus, Japan). To investigate the preventive effect on lens fiber degeneration, lens was stained and observed. […]

In the case of `Cc1cc(C(C)(C)C)c(O)c(C(C)(C)C)c1` [BHT, butylated hydroxytoluene], the “RC50 (μg/ml), amount of sample needed for the reduction of 50% DPPH” value [1] is reported as 26.75 ± 10.75 µg/mL.

In the case of `CN(C)C(=N)N=C(N)N` [metformin], the “level of AGEs in urine” value [2] is reported as “not significantly changed”, the “blood-retinal barrier damage, outflow of the fluorescent material” value ([3]; 16 weeks) is reported as “observed just barely” and the “pericyte loss, acellular capillary formation and closed vessels” value ([3]; 16 weeks) is reported as “significantly inhibited”. The “GFAP positive reaction, Muller cell activation” value ([3]; 16 weeks, vs diabetes group) was “rather decreased”, the “aldose reductase (AR) activity in lens” value ([3]; 16 weeks, extract 250 mg/ml as printed, metformin, vs diabetes group) was “AR activity was significantly reduced” and the “lens fiber degeneration, swelling and vesicle formation” value ([3]; 16 weeks, extract high concentration, metformin 350 mg/kg) was “improving effect was hardly observed”. For the same molecule, the “retinal angiogenesis, fluorescein-dextran” value ([3]; 16 weeks, extract low and high concentration, metformin 350 mg/kg) was “Angiogenesis was also observed”, the “podocyte loss, synaptopodin staining” value ([3]; 16 weeks, extract low and high concentration, metformin 350 mg/kg, vs diabetes group) was “no significant difference” and the “glomerular hypertrophy and mesangial matrix enlargement, PAS staining” value ([3]; oral once a day 16 weeks, extract 100 and 250 mg/kg, metformin 350 mg/kg) was “morphological changes were reduced, which was not significant”.

From patent US8784911B2, “Compositions for treatment and prevention of diabetic complications using Osteomeles schwerinae” (Korea Institute of Oriental Medicine, priority 2009, dated 2014)
